Columns and labels:
Type in all cases: in vivo
kochia (Kochia scoparia) [1] = assay: Test A postemergence, visual plant response rating
Procedure, shortened: (§1)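 Compared with untreated controls, treated plants received a visual injury score on a 0–100 scale around 10 days after application. The compound, in a non-phytotoxic solvent with surfactant, was given as a preemergence soil spray or postemergence at the one- to two-leaf stage.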

[2] = tested on: Italian ryegrass (Lolium multiflorum); assay: Test A postemergence, visual plant response rating
Procedure, shortened: as §1

[3] = tested on: ragweed (common ragweed, Ambrosia elatior); assay: Test A postemergence, visual plant response rating
Procedure, shortened: as §1

corn (Zea mays) = assay: Test A postemergence, visual plant response rating
Procedure, shortened: as §1

[4] = tested on: pigweed (Amaranthus retroflexus); assay: Test A postemergence, visual plant response rating
Procedure, shortened: as §1

[5] = tested on: galium (catchweed bedstraw, Galium aparine); assay: Test A postemergence, visual plant response rating
Procedure, shortened: as §1

[6] = tested on: foxtail, giant (giant foxtail, Setaria faberii); assay: Test A postemergence, visual plant response rating
Procedure, shortened: as §1

[7] = tested on: wheat (Triticum aestivum); assay: Test A postemergence, visual plant response rating
Procedure, shortened: as §1

[8] = tested on: blackgrass (Alopecurus myosuroides); assay: Test A postemergence, visual plant response rating
Procedure, shortened: as §1

[9] = tested on: barnyardgrass (Echinochloa crus-galli); assay: Test A postemergence, visual plant response rating
Procedure, shortened: as §1

kochia (Kochia scoparia) [10] = assay: Test A preemergence, visual plant response rating
Procedure, shortened: as §1

[11] = tested on: Italian ryegrass (Lolium multiflorum); assay: Test A preemergence, visual plant response rating
Procedure, shortened: as §1

[12] = tested on: ragweed (common ragweed, Ambrosia elatior); assay: Test A preemergence, visual plant response rating
Procedure, shortened: as §1

[13] = tested on: pigweed (Amaranthus retroflexus); assay: Test A preemergence, visual plant response rating
Procedure, shortened: as §1

[14] = tested on: foxtail, giant (giant foxtail, Setaria faberii); assay: Test A preemergence, visual plant response rating
Procedure, shortened: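 Ratings 0–100 (100 = complete control), visual, vs untreated controls at ~10 days. Application pre- or postemergence; solvent mixture with surfactant; loam/sand medium.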

[15] = tested on: barnyardgrass (Echinochloa crus-galli); assay: Test A preemergence, visual plant response rating
Procedure, shortened: as §1

[16] = tested on: sedge, umbrella (small-flower umbrella sedge, Cyperus difformis); assay: Test B flooded paddy test, visual plant response rating; settings: 250 g ai/ha, Flood, applied to paddy water, 2-leaf stage, evaluated after 13 to 15 days
Procedure, shortened: (§2)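 Seedlings at 2 leaves; compound into paddy water (3 cm flood, maintained); 13–15 d greenhouse; visual score relative to controls.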

rice (Oryza sativa) = assay: as above; settings: 250 g ai/ha, Flood, applied to paddy water, 2-leaf stage, evaluated after 13 to 15 days
Procedure, shortened: as §2

[17] = tested on: ducksalad (Heteranhera limosa); assay: as above; settings: 250 g ai/ha, Flood, applied to paddy water, 2-leaf stage, evaluated after 13 to 15 days
Procedure, shortened: as §2

[18] = tested on: barnyardgrass (Echinochloa crus-galli); assay: as above; settings: 250 g ai/ha, Flood, applied to paddy water, 2-leaf stage, evaluated after 13 to 15 days
Procedure, shortened: as §2

[19] = 500 g ai/ha, postemergence, 0 is no effect, 100 is complete control
[20] = Postemergence, 125 g ai/ha, 0 to 100 scale (0 no effect, 100 complete control)
[21] = 125 g ai/ha, preemergence, 0 to 100 scale, 0 no effect, 100 complete control
[22] = 500 g ai/ha Preemergence, approx. 10 days

`CON=C(c1cc(C)cs1)c1c(O)c(C)nn(C)c1=O` (mixture of isomers) [Compound 133] was tested, and the “Kochia plant response rating (0 to 100 scale)” value (kochia (Kochia scoparia) [1]; [19]) was 60, the “Kochia plant response rating” value (kochia (Kochia scoparia) [1]; [20]) was 20 and the “Ryegrass, Italian plant response rating (0 to 100 scale)” value [2, 19] was 0. For the same compound, the “Ryegrass, Italian plant response rating” value [2, 20] was 0, the “Ragweed plant response rating (0 to 100 scale)” value [3, 19] was 30 and the “Ragweed plant response rating” value [3, 20] was 10. For the same compound, the “Corn plant response rating (0 to 100 scale)” value (corn (Zea mays); [19]) was 0, the “Corn plant response rating” value (corn (Zea mays); [20]) was 0 and the “Pigweed plant response rating (0 to 100 scale)” value [4, 19] was 80. For the same compound, the “Pigweed plant response rating” value [4, 20] was 50, the “Galium plant response rating (0 to 100 scale)” value [5, 19] was 60 and the “Galium plant response rating” value [5, 20] was 20. For the same compound, the “Foxtail, Giant plant response rating (0 to 100 scale)” value [6, 19] was 10, the “Foxtail, Giant plant response rating” value [6, 20] was 0 and the “Wheat plant response rating (0 to 100 scale)” value [7, 19] was 0. The “Wheat plant response rating” value [7, 20] was 0, the “Blackgrass plant response rating (0 to 100 scale)” value [8, 19] was 0 and the “Blackgrass plant response rating” value [8, 20] was 0. For the same compound, the “Barnyardgrass plant response rating (0 to 100 scale)” value [9, 19] was 0, the “Barnyardgrass plant response rating” value [9, 20] was 0 and the “Kochia plant response rating” value (kochia (Kochia scoparia) [10]; [21]) was 0. For the same compound, the “Kochia plant response rating (0 to 100 scale)” value (kochia (Kochia scoparia) [10]; [22]) was 20, the “Ryegrass, Italian plant response rating” value [11, 21] was 0 and the “Ryegrass, Italian plant response rating (0 to 100 scale)” value [11, 22] was 0. The “Ragweed plant response rating” value [12, 21] was 0, the “Ragweed plant response rating (0 to 100 scale)” value [12, 22] was 40 and the “Pigweed plant response rating” value [13, 21] was 0. For the same compound, the “Pigweed plant response rating (0 to 100 scale)” value [13, 22] was 0, the “Foxtail, Giant plant response rating” value [14, 21] was 0 and the “Foxtail, Giant plant response rating (0 to 100 scale)” value [14, 22] was 0. For the same compound, the “Barnyardgrass plant response rating” value [15, 21] was 0, the “Barnyardgrass plant response rating (0 to 100 scale)” value [15, 22] was 0 and the “Plant response rating, Sedge, Umbrella (0 to 100 scale, 0 is no effect, 100 is complete control)” value [16] was 0. The “Plant response rating, Rice (0 to 100 scale, 0 is no effect, 100 is complete control)” value (rice (Oryza sativa)) was 0, the “Plant response rating, Ducksalad (0 to 100 scale, 0 is no effect, 100 is complete control)” value [17] was 0 and the “Plant response rating, Barnyardgrass (0 to 100 scale, 0 is no effect, 100 is complete control)” value [18] was 0.
